{"source": "patent US7655225B2", "about": "“Methods of expanding stem and progenitor cells and expanded cell populations obtained thereby” (Gamida Cell, Ltd., priority 2002, dated 2010)", "key": {"CD34+ cells [1]": {"test_system": "CD34+ cells", "experiment": "Ex vivo expansion of purified CD34+ cells in liquid culture: cell enumeration and FACS of subsets", "format": "cell-based, human", "conditions": "three weeks, 5, 10 or 20 μM", "description": "Sample collection and processing: Samples were obtained from umbilical human cord blood and processed within 12 hours. The blood cells were mixed with 3% Gelatin (Gigma, St. Louis, Mo.) and allowed to sediment for 30 minutes to remove most red blood cells. The leukocyte-rich fraction was harvested, layered on Ficoll-Hypaque (density 1.077 gram/ml; Sigma) and centrifuged at 400 g for 30 minutes at room temperature. The mononuclear cells in the interface layer were then collected, washed three times in phosphate-buffered saline (PBS; Biological Industries), and re-suspended in PBS solution which contains 1% bovine serum albumin (BSA; Sigma). The cells were then incubated at 4° C. for 30 minutes with murine monoclonal anti CD34^+ antibody (0.5 μg/10^6 mononuclear cells) and were thereafter isolated using two cycles of immuno-magnetic separation using the miniMACS CD34^+ Progenitor Cell Isolation Kit (Miltenyi-Biotec, Auburn, Calif.) according to the manufacturer's recommendations. The purity of the CD34^+ cells obtained ranged between 95% and 98%, based on Flow Cytometry evaluation (see below). Ex vivo expansion of progenitor cells: Enriched CD34^+ cell fractions were cultures in 24-well Costar Cell Culture Clusters (Corning Inc., Corning, N.Y.) or in Culture Bags (American Fluoroseal Corp.) with alpha minimal essential medium supplemented with 10% fetal bovine serum (FBS, Biological Industries), at about 1-3×10^4 cells/ml medium. The media were further supplemented with the following human recombinant cytokines (all obtained from Perpo Tech, Inc., Rocky Hill, N.J.): Thrombopoietin (TPO), 50 ng/ml; interleukin 6 (IL-6), 50 ng/ml; FLT-3 ligand, 50 ng/ml; and IL-3, 20 ng/ml. The cultures were incubated at 37° C. in an atmosphere of 5% CO2 in air with extra humidity. At weekly intervals cell cultures were semi-depopulated and supplemented with fresh medium containing the cytokines. Following different incubation periods, the cells were harvested, stained with trypan blue and enumerated. The total cell counts, numbers of CD34^+ cells and subsets thereof, and the number of colony-forming cells (CFU) are presented herein as cumulative numbers, with the assumption that the cultures had not been passaged, namely, the numbers of cells per ml were multiplied by the number of passages performed. Surface antigen analysis: At different time intervals, the cultured cells were harvested, washed with a PBS solution containing 1% BSA and 0.1% sodium azide (Sigma), and stained, at 4° C. for 60 minutes, with FITC-labeled anti CD45 monoclonal antibody and either PE-labeled anti CD34 (HPCA-2) monoclonal or PE-labeled control mouse Ig (all from Immunoquality Products, the Netherlands). The cells were then washed with the same PBS solution and were analyzed by a flow cytometer, as described hereinafter. Flow cytometry analysis: Cells were analyzed and sorted using FACS caliber flow cytometer (Becton-Dickinson, Immunofluorometry systems, Mountain View, Calif.). Cells were passed at a rate of 1,000 cells/second through a 70 μm nozzle, using a saline sheath fluid. A 488 nm argon laser beam at 250 mW served as the light source for excitation. Fluorescence emission of ten thousand cells was measured using a logarithmic amplification and analyzed using CellQuest software. Determination of the density of stem and progenitor subset populations following expansion: Following an incubation period, the CD34^+ cells were re-selected using miniMACS Miltenyi kit. The purity of the positive fraction of selected CD34^+ cells was confirmed by FACS analysis as well as by cell morphology analysis. The density of CD34^+ cells, in proportion (percentage) to total cells, was determined directly via FACS analysis. The densities of CD34^+ subset populations were determined from the purified CD34^+ fraction. Re-selected CD34^+ cells were stained with lineage specific antigens followed by FACS analysis to determine the percentage of the subset populations within the total number of CD34^+ cells. […]"}, "CD34+ cells [2]": {"test_system": "CD34+ cells", "experiment": "Self-renewal potential: colony-forming cells (CFU) from CD34+ cultures", "format": "cell-based, human", "conditions": "five-weeks culture; 10 or 20 μM, added first three weeks; FIG. 9", "description": "Ex vivo expansion of progenitor cells: Enriched CD34^+ cell fractions were cultures in 24-well Costar Cell Culture Clusters (Corning Inc., Corning, N.Y.) or in Culture Bags (American Fluoroseal Corp.) with alpha minimal essential medium supplemented with 10% fetal bovine serum (FBS, Biological Industries), at about 1-3×10^4 cells/ml medium. The media were further supplemented with the following human recombinant cytokines (all obtained from Perpo Tech, Inc., Rocky Hill, N.J.): Thrombopoietin (TPO), 50 ng/ml; interleukin 6 (IL-6), 50 ng/ml; FLT-3 ligand, 50 ng/ml; and IL-3, 20 ng/ml. The cultures were incubated at 37° C. in an atmosphere of 5% CO2 in air with extra humidity. At weekly intervals cell cultures were semi-depopulated and supplemented with fresh medium containing the cytokines. Following different incubation periods, the cells were harvested, stained with trypan blue and enumerated. The total cell counts, numbers of CD34^+ cells and subsets thereof, and the number of colony-forming cells (CFU) are presented herein as cumulative numbers, with the assumption that the cultures had not been passaged, namely, the numbers of cells per ml were multiplied by the number of passages performed. Self-renewal potential evaluations: The self-renewal potential of stem cells was determined in vitro by long-term colony formation. Cells were washed and seeded in a semi-solid methylcellulose medium supplemented with 2 IU/ml erythropoietin ([…] Int., Switzerland), stem cell factor and IL-3, both at 20 ng/ml (Perpo Tech), and G-CSF and GM-CSF, both at 10 ng/ml (Perpo Tech). The resulting colonies were scored after two weeks of incubation at 37° C. in a humidified atmosphere of 5% CO2 in air. Colonies were classified as blast, mixed, erythroid, myeloid, and megakaryocytic, according to their cellular composition."}}}
{"smiles": "[Cl][Cu][Cl]", "note": "[copper chloride, reference compound]", "values": [{"measurement": "number of total cells vs untreated control", "setting": "CD34+ cells [1]; FIG. 8a", "result": "did not differ significantly"}, {"measurement": "stem cells (CD34+) vs untreated or chelate-treated cultures", "setting": "CD34+ cells [1]; FIG. 8b", "result": "fewer"}, {"measurement": "CD34+ CD38− stem/progenitor subset cells vs untreated or chelate-treated cultures", "setting": "CD34+ cells [1]; FIG. 8c", "result": "fewer"}, {"measurement": "CD34+ Lin− stem/progenitor subset cells vs untreated or chelate-treated cultures", "setting": "CD34+ cells [1]; FIG. 8d", "result": "fewer"}, {"measurement": "colony-forming cells of CD34+ vs untreated or TEPA-Cu treated cultures", "setting": "CD34+ cells [2]", "result": "substantially fewer"}]}
